Experimental data as given in patent EP0360750A2, “Novel herbicide tolerant plants” (CIBA-GEIGY AG, priority 1988, dated 1990).

Columns and labels:
[1] = system: AHAS; test: AHAS enzyme assay: AHAS activity remaining in the presence of herbicides or amino acids; format: biochemical, Nicotiana tabacum; settings: for % AHAS activity remaining with Leu / % AHAS activity remaining with Ile / % AHAS activity remaining with Val: 10mM
Protocol: The weight of the material to be assayed is determined either by weighing the pellet obtained by refrigerated centrifugation of a cell suspension or by weighing callus, leaf or root tissue placed into liquid nitrogen and macerated to a fine powder. One volume (in ml) of cold homogenization buffer equal to the weight (in g) of the cell suspension pellet or equal to two times the weight (in g) of tissue is added and the mixture is passed through a French pressure cell at 15,000 psi or is ground with sand in a mortar and pestle. All subsequent steps are carried out keeping the material cold (about 4°C). The cells are disrupted at 16,000 psi, collecting the cell exudate into a container on ice. The exudate is centrifuged 5 min at 10,000 rpm to clear the cell debris. The volume of the supernate is measured and enzyme grade ammonium sulfate added to 25 % saturation (144 mg (NH₄)₂SO₄ per ml supernate). The mixture is stirred on ice for 15 min, then centrifuged for 5 min at 10,000 rpm. The pellet is discarded and the supernate adjusted to 50 % saturation with ammonium sulfate (158 mg (NH₄)₂SO₄ per ml supernate). After stirring on ice for 15 min, the pellet is collected by centrifugation at 10,000 rpm for 5 min. The obtained pellet is dissolved in 1-2 ml of column buffer. The extract is desalted by application to a Sephadex G50 column equilibrated with column buffer. The sample is eluted with column buffer, collecting approximately 2 ml of sample for each ml of sample applied to the column.
Homogenization buffer and column buffer are chosen depending on the source of the AHAS to be assayed: Tobacco homogenization buffer consists of: 50 mM NaH₂PO₄ buffer pH 7.0, 0.5 mM EDTA pH 7.0, 0.5 mM MgCl₂, 1 mM sodium pyruvate pH 7.0, 10 µM FAD, 1 mM PMSF, 10 % glycerol. Maize homogenization buffer consists of: 50 mM Tris pH 7.5, 1 mM EDTA pH 7.5, 5 mM MgCl₂, 20 mM sodium pyruvate pH 7.0, 10 µM FAD, 1 mM PMSF, 1 mM DTT, 1 mM TPP, 10 % glycerol. Tobacco column buffer consists of: 50 mM NaH₂PO₄ buffer pH 7.0, 0.1 mM EDTA, 0.5 mM MgCl₂, 10 µM FAD, 1 mM PMSF, 10 % glycerol. Maize column buffer consists of: 50 mM Tris pH 7.5, 5 mM MgCl₂, 10 µM FAD, 0.1 mM EDTA, 1 mM PMSF, 1 mM DTT, 10 % glycerol.
5-50 µl of an extract prepared according to EXAMPLE 30 are dissolved in a total volume of 0.5 ml of reaction mixture (see below). The mixture is incubated for 30 min at 37°C. The reaction is stopped by the addition of 50 µl of 6 N H₂SO₄. The mixture is incubated for 15 min at 60°C, then treated with 625 µl of a-naphthol reagent (500 µl 5 % a-naphthol in 2.5 M NaOH and 125 µl 25 mg/ml creatine) and incubated another 15 min at 60°C. If a precipitate has formed, this is spun out, and the absorbance measured at 520 nm. The amount of acetoin formed is calculated from a standard curve developed using 0.4 µg to 10 µg acetoin. The specific activity is expressed as pKat acetoin per mg protein.
1-20 µl of a sample are placed in a ELISA plate well with a total volume of 0.15 ml of reaction mixture. The mixture is reacted for 30 min at 37°C. The reaction is stopped by the addition of 50 µl of 2.4 M H₂SO₄ containing 1 % creatine. The mixture is incubated for 30 min at 60°C. Any precipitate present is separated by centri fugation. 150 µl of the assay mixture are transferred to a new ELISA plate, treated with 100 µl 10 % a-naphthol in 5M NaOH and incubated another 20 min at 60°C. The absorbance is measured at 520 nm, and the specific activity expressed as under a).
Ten point inhibition curves are generated by determining AHAS activity in the presence of sulfonylurea, imidazolinone and triazolopyrimidine herbicides. The sulfonylurea and triazolopyrimidine herbicides are included in the reaction mixture to give a range of final concentrations of the inhibitors between 1 nM and 10,000 nM. The imidazolinone herbicides are included in the concentration ranges of 10 nM to 100,000 nM. […]

[2] = system: transgenic tobacco plants; test: Leaf disc herbicide tolerance test of transgenic tobacco plants; format: cell-based, cv. Havana 38; settings: after 40 days
Protocol: After 3-6 weeks of growth in light, the cultured tissue pieces are evaluated for their ability to form green shoots in the presence of the inhibitor. In analogy, sections from stems, petioles, roots, cotyledons, and hypocotyls are used. The herbicide tolerance of the transgenic plants obtained according to EXAMPLE 23 and 24 using CGA1402 are essentially determined as described in EXAMPLE 11a. Leaf discs are cut from different transgenic plants, weighed and then placed, lower side up, onto solidified MSBN medium containing 0, 10, 30, 100 and 300 ppb of SU872. The culture plates are incubated in the light at 25-28°C. […] Discs are inspected visually and evaluated for shoot and/or callus formation.

For `CC(C)C[C@H](N)C(=O)O` [Leu, leucine], the “% AHAS activity remaining with Leu” value ([1]; strain S3 (Table 2)) was 38%, the “% AHAS activity remaining with Leu” value ([1]; strain Su 6 (Table 2)) was 58% and the “% AHAS activity remaining with Leu” value ([1]; strain Su 8 (Table 2)) was 61%. For the same compound, the “% AHAS activity remaining with Leu” value ([1]; strain Su 10 (Table 2)) was 62%, the “% AHAS activity remaining with Leu” value ([1]; strain Su 20 (Table 2)) was 53% and the “% AHAS activity remaining with Leu” value ([1]; strain Su 25 (Table 2)) was 84%. For the same compound, the “% AHAS activity remaining with Leu” value ([1]; strain Su 27 (Table 2)) was 81% and the “% AHAS activity remaining with Leu” value ([1]; strain Su 41 (Table 2)) was 71%.

With `COC(=O)c1ccccc1S(=O)(=O)NC(=O)Nc1nc(OC(F)F)cc(OC(F)F)n1` [SU872, 2-methoxycarbonyl-N-[(4,6-bis{difluoromethoxy}-pyrimidin-2-yl)-aminocarbonyl]benzenesulfonamide] the “Mean mg fresh weight per disc ± standard deviation (n=7)” value ([2]; 10 ppb SU872, plant A3 (transformed with CGA1402, 35S/wild-type Arabidopsis AHAS)) was 2151 ± 995 mg, the “Mean mg fresh weight per disc ± standard deviation (n=7)” value ([2]; 10 ppb SU872, plant A4 (transformed with CGA1402, 35S/wild-type Arabidopsis AHAS)) was 2847 ± 548 mg and the “Mean mg fresh weight per disc ± standard deviation (n=7)” value ([2]; 10 ppb SU872, plant D2 (genomic clone of AHAS from chlorsulfuron tolerant mutant GH-50), discs bleached, not enlarged, no callus) was 70 ± 14 mg. The “Mean mg fresh weight per disc ± standard deviation (n=7)” value ([2]; 10 ppb SU872, plant type E (wild-type tobacco, cv. Havana 38), discs bleached, not enlarged, no callus) was 87 ± 19 mg, the “Mean mg fresh weight per disc ± standard deviation (n=7)” value ([2]; 30 ppb SU872, plant A3) was 180 ± 98 mg and the “Mean mg fresh weight per disc ± standard deviation (n=7)” value ([2]; 30 ppb SU872, plant A4) was 333 ± 174 mg. For the same compound, the “Mean mg fresh weight per disc ± standard deviation (n=7)” value ([2]; 100 ppb SU872, plant A3) was 33 ± 29 mg, the “Mean mg fresh weight per disc ± standard deviation (n=7)” value ([2]; 100 ppb SU872, plant A4) was 19 ± 15 mg and the “% AHAS activity remaining with SU872” value ([1]; 0.21µM, strain S3 (Table 2)) was 17%. For the same compound, the “% AHAS activity remaining with SU872” value ([1]; 0.21µM, strain Su 6 (Table 2)) was 27%, the “% AHAS activity remaining with SU872” value ([1]; 0.21µM, strain Su 8 (Table 2)) was 32% and the “% AHAS activity remaining with SU872” value ([1]; 0.21µM, strain Su 10 (Table 2)) was 39%. The “% AHAS activity remaining with SU872” value ([1]; 0.21µM, strain Su 20 (Table 2)) was 18%, the “% AHAS activity remaining with SU872” value ([1]; 0.21µM, strain Su 25 (Table 2)) was 20% and the “% AHAS activity remaining with SU872” value ([1]; 0.21µM, strain Su 27 (Table 2)) was 36%. The “% AHAS activity remaining with SU872” value ([1]; 0.21µM, strain Su 41 (Table 2)) was 15%, the “% AHAS activity remaining with SU872” value ([1]; 10.6µM, strain S3 (Table 2)) was 14% and the “% AHAS activity remaining with SU872” value ([1]; 10.6µM, strain Su 6 (Table 2)) was 12%. The “% AHAS activity remaining with SU872” value ([1]; 10.6µM, strain Su 8 (Table 2)) was 12%, the “% AHAS activity remaining with SU872” value ([1]; 10.6µM, strain Su 10 (Table 2)) was 15% and the “% AHAS activity remaining with SU872” value ([1]; 10.6µM, strain Su 20 (Table 2)) was 17%. The “% AHAS activity remaining with SU872” value ([1]; 10.6µM, strain Su 25 (Table 2)) was 18%, the “% AHAS activity remaining with SU872” value ([1]; 10.6µM, strain Su 27 (Table 2)) was 20% and the “% AHAS activity remaining with SU872” value ([1]; 10.6µM, strain Su 41 (Table 2)) was 12%.

For `COCCOc1ccccc1S(=O)(=O)NC(=O)Nc1nc(OC)nc(OC)n1` [SU464, 2-(2-methoxyethoxy)-N-[(4,6-dimethoxy-1,3,5-triazin-2-yl)-aminocarbonyl]benzenesulfonamide], the “% AHAS activity remaining with SU464” value ([1]; 0.21µM, strain S3 (Table 2)) was 44%, the “% AHAS activity remaining with SU464” value ([1]; 0.21µM, strain Su 6 (Table 2)) was 36% and the “% AHAS activity remaining with SU464” value ([1]; 0.21µM, strain Su 8 (Table 2)) was 38%. For the same compound, the “% AHAS activity remaining with SU464” value ([1]; 0.21µM, strain Su 10 (Table 2)) was 37%, the “% AHAS activity remaining with SU464” value ([1]; 0.21µM, strain Su 20 (Table 2)) was 32% and the “% AHAS activity remaining with SU464” value ([1]; 0.21µM, strain Su 25 (Table 2)) was 32%. The “% AHAS activity remaining with SU464” value ([1]; 0.21µM, strain Su 27 (Table 2)) was 39%, the “% AHAS activity remaining with SU464” value ([1]; 0.21µM, strain Su 41 (Table 2)) was 32% and the “% AHAS activity remaining with SU464” value ([1]; 10.6µM, strain S3 (Table 2)) was 24%. For the same compound, the “% AHAS activity remaining with SU464” value ([1]; 10.6µM, strain Su 6 (Table 2)) was 15%, the “% AHAS activity remaining with SU464” value ([1]; 10.6µM, strain Su 8 (Table 2)) was 16% and the “% AHAS activity remaining with SU464” value ([1]; 10.6µM, strain Su 10 (Table 2)) was 20%. The “% AHAS activity remaining with SU464” value ([1]; 10.6µM, strain Su 20 (Table 2)) was 21%, the “% AHAS activity remaining with SU464” value ([1]; 10.6µM, strain Su 25 (Table 2)) was 18% and the “% AHAS activity remaining with SU464” value ([1]; 10.6µM, strain Su 27 (Table 2)) was 19%. The “% AHAS activity remaining with SU464” value ([1]; 10.6µM, strain Su 41 (Table 2)) was 21%.

With `CC[C@H](C)[C@H](N)C(=O)O` [Ile, isoleucine] the “% AHAS activity remaining with Ile” value ([1]; strain S3 (Table 2)) was 80%, the “% AHAS activity remaining with Ile” value ([1]; strain Su 6 (Table 2)) was 66% and the “% AHAS activity remaining with Ile” value ([1]; strain Su 8 (Table 2)) was 95%. The “% AHAS activity remaining with Ile” value ([1]; strain Su 10 (Table 2)) was 102%, the “% AHAS activity remaining with Ile” value ([1]; strain Su 20 (Table 2)) was 58% and the “% AHAS activity remaining with Ile” value ([1]; strain Su 25 (Table 2)) was 100%. The “% AHAS activity remaining with Ile” value ([1]; strain Su 27 (Table 2)) was 92% and the “% AHAS activity remaining with Ile” value ([1]; strain Su 41 (Table 2)) was 97%.

With `CC(C)[C@H](N)C(=O)O` [Val, valine] the “% AHAS activity remaining with Val” value ([1]; strain S3 (Table 2)) was 69%, the “% AHAS activity remaining with Val” value ([1]; strain Su 6 (Table 2)) was 82% and the “% AHAS activity remaining with Val” value ([1]; strain Su 8 (Table 2)) was 81%. The “% AHAS activity remaining with Val” value ([1]; strain Su 10 (Table 2)) was 48%, the “% AHAS activity remaining with Val” value ([1]; strain Su 20 (Table 2)) was 75% and the “% AHAS activity remaining with Val” value ([1]; strain Su 25 (Table 2)) was 86%. For the same compound, the “% AHAS activity remaining with Val” value ([1]; strain Su 27 (Table 2)) was 91% and the “% AHAS activity remaining with Val” value ([1]; strain Su 41 (Table 2)) was 83%.
